Tests used:
Carbonic anhydrase 2 [1] = biological target: T1, Carbonic anhydrase 2 (Homo sapiens, UniProt P00918)
Description: Inhibition of human carbonic anhydrase 2 by 4-NPA hydrolysis assay

Carbonic anhydrase 2 [2] = biological target: T1, Carbonic anhydrase 2; remark: listed apart in the source
Description: Binding affinity to human carbonic anhydrase 2 in presence of 10 mM HEPES and 100 uM Na2SO4 at pH 7.5 by ThermoFluor method

Carbonic anhydrase 2 [3] = biological target: T1, Carbonic anhydrase 2; remark: listed apart in the source
Description: Binding affinity to human carbonic anhydrase 2 in presence of 10 mM HEPES without Na+ at pH 7.5 by ThermoFluor method

Carbonic anhydrase 2 [4] = biological target: T1, Carbonic anhydrase 2; remark: listed apart in the source
Description: Binding affinity to human carbonic anhydrase 2 in presence of 10 mM PIPES and 100 uM Na2SO4 at pH 7.0 by ThermoFluor method

Carbonic anhydrase 2 [5] = biological target: T1, Carbonic anhydrase 2; remark: listed apart in the source
Description: Binding affinity to human carbonic anhydrase 2 in presence of 10 mM PIPES and 200 uM NaCl at pH 7.0 by ThermoFluor method

Carbonic anhydrase 2 [6] = biological target: T1, Carbonic anhydrase 2; remark: listed apart in the source
Description: Binding affinity to human carbonic anhydrase 2 in presence of 10 mM PIPES without Na+ at pH 7.0 by ThermoFluor method

[7] = Dissociation constant, pKa of the compound; format: physicochemical

Compound | Ki (Carbonic anhydrase 2 [1]) [µM] | Kd (Carbonic anhydrase 2 [2]) [µM] | Kd (Carbonic anhydrase 2 [3]) [µM] | Kd (Carbonic anhydrase 2 [4]) [µM] | Kd (Carbonic anhydrase 2 [5]) [µM] | Kd (Carbonic anhydrase 2 [6]) [µM] | pKa [7]
CC1(C)O[C@H]2[C@@H]3OCO[C@@H]3CO[C@@]2(CNS(N)(=O)=O)O1 | 300 | > 57 | > 57 | > 57 | > 57 | > 57 | 
CC1(C)O[C@@H]2[C@@H](CO[C@@]3(CNS(N)(=O)=O)OC(C)(C)O[C@@H]23)O1 |  |  |  |  |  |  | 10.7
CC1(C)O[C@@H]2[C@@H](CO[C@@]3(COS(N)(=O)=O)OC(C)(C)O[C@@H]23)O1 [TOPIRAMATE] |  |  |  |  |  |  | 8.7

Reference: ChEMBL document CHEMBL1144768 (J Med Chem, 2008)
